From patent US9119853B2, “Sanglifehrin based compounds” (priority 2010, dated 2015)
Converted amounts (≈) assume the structure as drawn. Like-named read-outs stand apart in the source and are kept apart here.

Tests used:
[1] = Cell viability (dye uptake) in the HBV assay; type: cell-based; details: human, HepG2 2.2.15 cells; read-out: TC50
Experimental: (§1) Antiviral efficacy against HBV may be tested as follows: HepG2 2.2.15 cells are plated in 96-well microtiter plates. After 16-24 hours the confluent monolayer of HepG2 2.2.15 cells is washed and the medium is replaced with complete medium containing various concentrations of a test compound in triplicate (eg six half-log concentrations). Three days later the culture medium is replaced with fresh medium containing the appropriately diluted test compounds. Six days following the initial administration of the test compound, the cell culture supernatant is collected, treated with pronase and then used in a real-time quantitative TaqMan qPCR assay. The PCR-amplified HBV DNA is detected in real-time by monitoring increases in fluorescence signals that result from the exonucleolytic degradation of a quenched fluorescent probe molecule that hybridizes to the amplified HBV DNA. For each PCR amplification, a standard curve is simultaneously generated using dilutions of purified HBV DNA. Antiviral activity is calculated from the reduction in HBV DNA levels (IC50). A dye uptake assay is then employed to measure cell viability, which is used to calculate toxicity (TC50). The therapeutic index (TI) is calculated as TC50/IC50.

[2] = target: T1, GST-CypD / Con1 NS5A-His complex (Homo sapiens, UniProt P30405); experiment: ELISA analysis of Cyp-NS5A interaction (CypD-NS5A disruption)
T1 sequence (P30405 30-207, one chain of several): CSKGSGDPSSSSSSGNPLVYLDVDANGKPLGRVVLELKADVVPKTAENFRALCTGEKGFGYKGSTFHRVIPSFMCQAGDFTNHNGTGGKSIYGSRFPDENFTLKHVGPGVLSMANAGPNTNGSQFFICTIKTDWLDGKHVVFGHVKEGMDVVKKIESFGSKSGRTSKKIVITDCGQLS

[3] = target: T1, GST-CypD / Con1 NS5A-His complex; experiment: biochemical
[4] = test system: HIV (pNL4.3-GFP / pNL4.3-BaL-GFP) in macrophages; experiment: microbe, parasite or virus in culture; type: cell-based; details: Human immunodeficiency virus 1, BAL, Macrophage, 48 h, read-out: Macrophages EC50
[5] = test system: HIV (pNL4.3-GFP / pNL4.3-BaL-GFP) in CD4+ T-lymphocytes; experiment: microbe, parasite or virus in culture; type: cell-based; details: Human immunodeficiency virus 1, BAL, T-lymphocyte, 48 h, read-out: CD4+ T-lymphocytes EC50
[6] = test system: peripheral blood mononuclear cells (PBMC); experiment: Mixed lymphocyte reaction (MLR) for immunosuppressant activity; type: cell-based, human; details: for IC50: read-out: Human MLR IC50; for immunosuppressive activity (in words): MLR
[7] = test system: HIV (pNL4.3-GFP / pNL4.3-BaL-GFP) in CD4+ HeLa cells; experiment: microbe, parasite or virus in culture; type: cell-based; details: for EC50: Human immunodeficiency virus 1, BAL, HeLa, 48 h, read-out: HeLa cells EC50; for potency at inhibiting HIV infection compared to cyclosporine A, 1 (in words): four cell types
[8] = Anti-metabolic effect (MTS) in the replicon cell line; details: human
[9] = test system: HIV (pNL4.3-GFP / pNL4.3-BaL-GFP) in Jurkat cells; experiment: microbe, parasite or virus in culture; type: cell-based; details: Human immunodeficiency virus 1, BAL, 48 h, read-out: T cells EC50
[10] = test system: HCV genotype 1b I389luc-ubi-neo/NS3-3'/5.1 replicon in Huh5.2 cells; experiment: microbe, parasite or virus in culture; type: cell-based, Hepatitis C Virus
[11] = test system: HBV in HepG2 2.2.15 cells; experiment: HBV antiviral assay (HBV DNA by qPCR); type: cell-based, Hepatitis B Virus; details: for EC50: Hepatitis B virus, read-out: HBV EC50
Solubility in PBS pH 7.4 = details: for solubility compared to sanglifehrin A (5) and cyclosporine A (1) (in words): PBS pH 7.4
[12] = pH 7.4
CyPA = CyPA (Homo sapiens, UniProt P62937); details: cited from earlier work
Sequence of CyPA (P62937 whole entry): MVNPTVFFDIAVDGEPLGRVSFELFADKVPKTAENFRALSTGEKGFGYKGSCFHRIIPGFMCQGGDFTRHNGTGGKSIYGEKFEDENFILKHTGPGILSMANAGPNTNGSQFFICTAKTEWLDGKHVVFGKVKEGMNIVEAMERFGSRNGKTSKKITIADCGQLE

Huh5.2 cells = experiment: Anti-metabolic effect (MTS) in the replicon cell line; details: for CC50: Huh5.2 cells, MTS, 72 hours
physchem = details: pH 7.4, aqueous buffer, kinetic from dmso stock
HBV = details: Ptak et al. 2008; read-out: IC50 against HBV; cited from earlier work
HIV-1 = details: clinical, Steyn et al., 2006, cited from earlier work
HepG2 2.2.15 cells = experiment: Cell viability (dye uptake) in the HBV assay; type: cell-based; details: at concentrations up to 32 μM
Experimental: as §1

[13] = Hepatitis C virus, Huh-5-2, 72 h

| Compound | disruption of the CypD-NS5A complex (in words) [2] | IC50 [3] | EC50 [4] | EC50 [5] | EC50 [7] | potency at inhibiting HIV infection compared to cyclosporine A, 1 (in words) [7] | CC50 at 72 h [8] | EC50 [9] | potency in the Huh5.2 replicon assay (in words) [10] | EC50 [10, 13] | EC90 [10, 13] | Solubility [12] | Selectivity index (CC50/EC50) [10] | also measured |
| --- | --- | --- | --- | --- | --- | --- | --- | --- | --- | --- | --- | --- | --- | --- |
| CC(=O)CC[C@H]1C(=O)N[C@@H](C(C)C)C(=O)N[C@@H](Cc2cccc(O)c2)C(=O)N2CCCC(N2)C(=O)O[C@H](/C(C)=C/C=C/C(=O)Nc2ccccn2)C/C=C/C=C/[C@H](O)[C@H](C)[C@H]1O (stereo partly shown) [compound 48] | potent disruption | 0.38 µM | 0.21 µM | 0.14 µM | 0.25 µM | significantly more potent | 39.7 µM | 0.11 µM | very potent | 0.167 µM | 0.737 µM |  |  | CC50 at 6 days [1]: > 32 µM; IC50 ([6]; Homo sapiens, PBMC): 1.06 µM; immunosuppressive activity (in words) [6]: very low levels of immunosuppressive activity; EC50 ([11]; HepG2 2.2.15, […]): > 32 µM |
| C=CCNC(=O)/C=C/C=C(\C)[C@@H]1C/C=C/C=C/[C@H](O)[C@H](C)[C@@H](O)[C@@H](CCC(C)=O)C(=O)N[C@@H](C(C)C)C(=O)N[C@@H](Cc2cccc(O)c2)C(=O)N2CCCC(N2)C(=O)O1 (stereo partly shown) [compound 25] |  |  |  |  |  |  | 48.4 µM |  |  | 1.6 µM | 8.5 µM | 96 µM (≈ 78.7 µg/mL) |  | solubility compared to sanglifehrin A (5) and cyclosporine A (1) (in words) (Solubility in PBS pH 7.4): increased solubility |
| CC[C@H]1C[C@H](C)[C@@]2(NC1=O)O[C@@H](C[C@H](O)[C@@H](C)CC/C=C/C=C(\C)[C@@H]1C/C=C/C=C/[C@H](O)[C@H](C)[C@@H](O)[C@@H](CCC(C)=O)C(=O)N[C@@H](C(C)C)C(=O)N[C@@H](Cc3cccc(O)c3)C(=O)N3CCC[C@H](N3)C(=O)O1)[C@H](C)[C@H](O)[C@@H]2C [Sanglifehrin A, 5, Sanglifehrin A, reference compound] |  |  |  |  |  |  |  |  |  |  |  | 9.4 µM (≈ 10.2 µg/mL) |  | IC50 [2]: 0.37 µM; IC50 ([6]; 3H-thymidine proliferation): 0.215 µM; higher affinity for CyPA compared to CsA (CyPA): approximately 20 fold; CC50 (Huh5.2 cells): 9.1 µM; cytotoxicity against the cell line (in words) (Huh5.2 cells; as shown by CC50): more cytotoxicity; EC50 ([10]; read-out: EC50): 0.318 µM; EC90 ([10]; read-out: EC90): 5.5 µM |
| CC(=O)CC[C@H]1C(=O)N[C@@H](C(C)C)C(=O)N[C@@H](Cc2cccc(O)c2)C(=O)N2CCCC(N2)C(=O)O[C@H](/C(C)=C/C=C/C(=O)N(CC(C)C)CC(C)C)C/C=C/C=C/[C@H](O)[C@H](C)[C@H]1O (stereo partly shown) [compound 32] |  |  |  |  |  |  | 2.1 µM |  | very potent | 0.309 µM | 1.1 µM | 33 µM (≈ 29.4 µg/mL) |  |  |
| CC(=O)CC[C@H]1C(=O)N[C@@H](C(C)C)C(=O)N[C@@H](Cc2cccc(O)c2)C(=O)N2CCC[C@H](N2)C(=O)O[C@H](/C(C)=C/CO)C/C=C/C=C/[C@H](O)[C@H](C)[C@H]1O [hydroxymacrocycle, 6, reference compound] |  |  |  |  |  |  |  |  | less potent |  |  |  |  | CC50 (Huh5.2 cells): 83.6 µM; EC50 ([10]; read-out: EC50): 8.4 µM; EC90 ([10]; read-out: EC90): 39.7 µM |
| CC(=O)CC[C@H]1C(=O)N[C@@H](C(C)C)C(=O)N[C@@H](Cc2cccc(O)c2)C(=O)N2CCCC(N2)C(=O)O[C@H](/C(C)=C/C=C/C(=O)N2CCCCO2)C/C=C/C=C/[C@H](O)[C@H](C)[C@H]1O (stereo partly shown) [compound 55] | potent disruption | 0.23 µM | 0.23 µM | 0.15 µM | 0.31 µM | significantly more potent | > 100 µM | 0.22 µM | very potent | 0.125 µM | 0.691 µM |  | >800 | IC50 ([6]; Homo sapiens, PBMC): 1.45 µM; immunosuppressive activity (in words) [6]: very low levels of immunosuppressive activity; Solubility (physchem): > 100 µM |
| CON(C)C(=O)/C=C/C=C(\C)[C@@H]1C/C=C/C=C/[C@H](O)[C@H](C)[C@@H](O)[C@@H](CCC(C)=O)C(=O)N[C@@H](C(C)C)C(=O)N[C@@H](Cc2cccc(O)c2)C(=O)N2CCCC(N2)C(=O)O1 (stereo partly shown) [compound 10] |  |  |  |  |  |  | > 100 µM |  | very potent | 0.162 µM | 0.921 µM |  | >617 | solubility compared to sanglifehrin A (5) and cyclosporine A (1) (in words) (Solubility in PBS pH 7.4): increased solubility; solubility at 4 h (Solubility in PBS pH 7.4; PBS, pH 7.4, aqueous buffer, kinetic from dmso stock): > 100 µM |
| C/C=C/C[C@@H](C)[C@@H](O)[C@H]1C(=O)N[C@@H](CC)C(=O)N(C)[C@H](C)C(=O)N(CC)[C@@H](C(C)C)C(=O)N[C@@H](C(C)C)C(=O)N(C)[C@@H](CC(C)C)C(=O)N[C@@H](C)C(=O)N[C@H](C)C(=O)N(C)[C@@H](CC(C)C)C(=O)N(C)[C@@H](CC(C)C)C(=O)N(C)[C@@H](C(C)C)C(=O)N1C [DEBIO-025] |  |  |  |  |  |  |  |  |  |  |  |  |  | IC50 (HBV): 4.1 µM; reduction of HIV-1 RNA levels (HIV-1; in nine patients): ≥ 0.5 log10 copies/mL; reduction of HIV-1 RNA levels (HIV-1; in two patients): > 1 log10 copies/mL |
| CON(C)C(=O)/C=C/C=C(\C)[C@@H]1C/C=C/C=C/C=C(\C)[C@@H](O)[C@@H](CCC(C)=O)C(=O)N[C@@H](C(C)C)C(=O)N[C@@H](Cc2cccc(O)c2)C(=O)N2CCCC(N2)C(=O)O1 (stereo partly shown) [compound 29] | potent disruption | 0.25 µM | 0.31 µM | 0.21 µM | 0.4 µM | significantly more potent | 20.2 µM | 0.2 µM | very potent | 0.293 µM | 1.5 µM |  | 68.4 | CC50 at 6 days [1]: > 32 µM; cytotoxicity in HBV assay (in words) (HepG2 2.2.15 cells): no cytotoxicity; Solubility (physchem): 66 µM (≈ 53.2 µg/mL); inhibiting replication of HBV (in words) [11]: remarkably potent; EC50 ([11]; HepG2 2.2.15, six days): < 0.1 µM |
